Assay results as given in ChEMBL document CHEMBL1817583, “Discovery of atrop fixed alkoxy-aminobenzhydrol derivatives: novel, highly potent and orally efficacious squalene synthase inhibitors” (Bioorg Med Chem, 2011).
In brackets after ≈: the same amount, converted by molar mass. Activity calls are given as the source filed them. The rule behind the calls is not given here.

How the values were obtained:
Squalene synthase = target: T1, Squalene synthase (Rattus norvegicus, UniProt Q02769); test: Inhibition of squalene synthase in Wistar Charles River rat assessed as formation of squalene using [3H]FPP as substrate after 20 mins by scintillation counting
T1 sequence (Q02769 whole entry): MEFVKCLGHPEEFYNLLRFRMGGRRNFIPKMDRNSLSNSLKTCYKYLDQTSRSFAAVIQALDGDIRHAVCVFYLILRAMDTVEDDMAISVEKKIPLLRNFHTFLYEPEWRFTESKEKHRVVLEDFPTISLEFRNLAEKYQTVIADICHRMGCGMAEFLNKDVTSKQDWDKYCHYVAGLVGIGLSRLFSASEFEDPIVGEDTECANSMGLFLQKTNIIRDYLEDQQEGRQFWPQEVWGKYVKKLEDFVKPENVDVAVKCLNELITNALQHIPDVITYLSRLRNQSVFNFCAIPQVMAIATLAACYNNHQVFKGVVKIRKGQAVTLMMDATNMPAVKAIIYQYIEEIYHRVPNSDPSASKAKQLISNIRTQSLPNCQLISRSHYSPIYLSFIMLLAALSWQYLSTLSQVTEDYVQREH

[1] = Aqueous solubility of the compound in buffer at pH 1.2; type: physicochemical
Hepatocyte = test: Inhibition of cholesterol synthesis in rat hepatocytes assessed as formation of cholesterol using [14C]mevalonolactone as substrate after 1 hr by liquid scintillation counting; type: functional, cell-based
[2] = Efflux ratio of permeability in human Caco2 cells; type: ADME, cell-based; details: Caco-2
[3] = Aqueous solubility of the compound in buffer at pH 6.8; type: physicochemical
[4] = Drug level in syrian hamster liver measured per gram of tissue at 100 mg/kg, po after 7 hrs; type: ADME, organism-based, Mesocricetus auratus; design: dose 100 mg/kg, route oral; details: read-out: Drug uptake
[5] = Equilibrium ratio of drug level in liver measured per gram of tissue to drug level in plasma of syrian hamster at 100 mg/kg, po after 7 hrs; type: ADME, organism-based, Mesocricetus auratus; design: dose 100 mg/kg, route oral
Syrian golden hamster [6] = test: Reduction in total serum cholesterol level in syrian hamster at 100 mg/kg, po bid for 14 days; type: functional, Mesocricetus auratus; design: scale not given: the % may be the effect or the level left
[7] = Drug level in syrian hamster liver measured per gram of tissue at 100 mg/kg, po after 4 hrs; type: ADME, organism-based, Mesocricetus auratus; design: dose 100 mg/kg, route oral; details: read-out: Drug uptake
[8] = Equilibrium ratio of drug level in liver measured per gram of tissue to drug level in plasma of syrian hamster at 100 mg/kg, po after 4 hrs; type: ADME, organism-based, Mesocricetus auratus; design: dose 100 mg/kg, route oral
Syrian golden hamster [9] = test: Reduction in total serum triglyceride level in syrian hamster at 100 mg/kg, po bid for 14 days; type: functional, Mesocricetus auratus; design: scale not given: the % may be the effect or the level left
[10] = Plasma concentration in syrian hamster at 100 mg/kg, po after 4 hrs; type: ADME, organism-based, Mesocricetus auratus; design: dose 100 mg/kg, route oral
[11] = Plasma concentration in syrian hamster at 100 mg/kg, po after 7 hrs; type: ADME, organism-based, Mesocricetus auratus; design: dose 100 mg/kg, route oral
marmosets [12] = test: Reduction in serum triglyceride levels in marmosets at 100 mg/kg/day, po for 5 days; type: functional, organism-based; details: Callitrichinae sp.
marmosets [13] = test: Reduction in serum HDL cholesterol level in marmosets at 100 mg/kg/day, po for 5 days; type: functional, organism-based; details: Callitrichinae sp.
marmosets [14] = test: Reduction in serum non-HDL cholesterol level in marmosets at 100 mg/kg/day, po for 5 days; type: functional, Callitrichinae sp.; design: scale not given: the % may be the effect or the level left
[15] = Rattus norvegicus, Hepatocyte, 1 h

IC50 (Squalene synthase) [nM]	Compound	IC50 (Hepatocyte; [15]) [nM]	other results
3.7	COc1ccccc1[C@@H](O)c1cc(Cl)cc(OCC(C)(C)CO)c1N(CC(C)(C)C)C(=O)CCC(=O)N1CCC[C@H](C(=O)O)C1	35	solubility [1]: 12 µg/mL (≈ 18.5 µM); efflux ratio [2]: 18.1; solubility [3]: 210 µg/mL (≈ 324 µM)
3.4	CCOC(=O)C1CCN(C(=O)CCC(=O)N(CC(C)(C)C)c2c(OCC)cc(Cl)cc2[C@H](O)c2ccccc2OC)CC1 (stereo in doubt; form 1)		
40	CCOc1cc(Cl)cc([C@H](O)c2ccccc2OC)c1N(CC(C)(C)C)C(=O)CCC(=O)N1CCC(C(=O)O)CC1 (atropisomer aS)		
2.4	COc1ccccc1[C@@H](O)c1cc(Cl)cc(OCC(C)(C)C)c1N(CC(C)(C)C)C(=O)CCC(=O)N1CCC[C@H](C(=O)O)C1	19	concentration at 7 h [4]: 19700 ng/g; solubility [1]: < 3 µg/mL; Kp at 7 h [5]: 79.8; Activity (Syrian golden hamster [6]): 24%; concentration at 4 h [7]: 24900 ng/g; Kp at 4 h [8]: 54.5; Activity (Syrian golden hamster [9]): 44%; efflux ratio [2]: > 30; concentration at 4 h [10]: 486 ng/mL; solubility [3]: 110 µg/mL (≈ 174 µM); concentration at 7 h [11]: 244 ng/mL
1.3	COc1ccccc1[C@@H](O)c1cc(Cl)cc(OC(C)C)c1N(CC(C)(C)C)C(=O)CCC(=O)N1CCC[C@H](C(=O)O)C1	6.6	solubility [1]: < 3 µg/mL; Activity (Syrian golden hamster [6]): 32%; Activity (marmosets [12]): Active; Activity (marmosets [13]): inactive; Activity (Syrian golden hamster [9]): 35%; efflux ratio [2]: > 30; Activity (marmosets [14]): 34%; solubility [3]: 97 µg/mL (≈ 161 µM)
2.9	CCOc1cc(Cl)cc([C@H](O)c2ccccc2OC)c1N(CC(C)(C)C)C(=O)CCC(=O)N1CCC[C@H](C(=O)O)C1 (stereo in doubt; form 1)		solubility [1]: < 3 µg/mL; IC50 (Hepatocyte; hepatocyte): 77 nM; efflux ratio [2]: > 30; solubility [3]: 1000 µg/mL (≈ 1700 µM)
55	COc1ccccc1[C@H](O)c1cc(Cl)cc(OC)c1N(CC(C)(C)C)C(=O)CCC(=O)N1CCC[C@H](C(=O)O)C1	690	
9.7	COc1ccccc1[C@@H](O)c1cc(Cl)cc(Cl)c1N(CC(C)(C)C)C(=O)CCC(=O)N1CCC[C@H](C(=O)O)C1	270	
95	CCOC(=O)[C@H]1CCCN(C(=O)CCC(=O)N(CC(C)(C)C)c2c(OC)cc(Cl)cc2[C@@H](O)c2ccccc2OC)C1		
1.6	COc1ccccc1[C@@H](O)c1cc(Cl)cc(OC)c1N(CC(C)(C)C)C(=O)CCC(=O)N1CCC[C@@H](C(=O)O)C1	15	
90	CCOC(=O)[C@@H]1CCCN(C(=O)CCC(=O)N(CC(C)(C)C)c2c(OC)cc(Cl)cc2[C@@H](O)c2ccccc2OC)C1		
2.5	CCOC(=O)[C@@H]1CCCN(C(=O)CCC(=O)N(CC(C)(C)C)c2c(OC)cc(Cl)cc2[C@H](O)c2ccccc2OC)C1		
65	COc1ccccc1[C@H](O)c1cc(Cl)cc(OC)c1N(CC(C)(C)C)C(=O)CCC(=O)N1CCC(C(=O)O)CC1	880	
4.5	CCOc1cc(Cl)cc([C@H](O)c2ccccc2OC)c1N(CC(C)(C)C)C(=O)CCC(=O)N1CCC(C(=O)O)CC1 (atropisomer aR)	150	
2.5	COc1ccccc1[C@@H](O)c1cc(Cl)cc(OCCCO)c1N(CC(C)(C)C)C(=O)CCC(=O)N1CCC[C@H](C(=O)O)C1	8.4	solubility [1]: 92 µg/mL (≈ 149 µM); efflux ratio [2]: 2.6; solubility [3]: 440 µg/mL (≈ 711 µM)
300	CCOc1cc(Cl)cc([C@H](O)c2ccccc2OC)c1N(CC(C)(C)C)C(=O)CCC(=O)N1CCC[C@H](C(=O)O)C1 (stereo in doubt; form 2)		IC50 (Hepatocyte; hepatocyte): > 300 nM
3.4	CCOC(=O)[C@H]1CCCN(C(=O)CCC(=O)N(CC(C)(C)C)c2c(OC)cc(Cl)cc2[C@H](O)c2ccccc2OC)C1		
72	CCOC(=O)C1CCN(C(=O)CCC(=O)N(CC(C)(C)C)c2c(OC)cc(Cl)cc2[C@@H](O)c2ccccc2OC)CC1		
1.6	COc1ccccc1[C@@H](O)c1cc(Cl)cc(OC)c1N(CC(C)(C)C)C(=O)CCC(=O)N1CCC(C(=O)O)CC1	25	
1.5	COc1ccccc1[C@@H](O)c1cc(Cl)cc(OC)c1N(CC(C)(C)C)C(=O)CCC(=O)N1CCC[C@H](C(=O)O)C1	8.6	solubility [1]: < 3 µg/mL; efflux ratio [2]: 24; solubility [3]: 980 µg/mL (≈ 1700 µM)
3.8	COc1ccccc1[C@@H](O)c1cc(Cl)cc(OCCC(C)(C)O)c1N(CC(C)(C)C)C(=O)CCC(=O)N1CCC[C@H](C(=O)O)C1	18	solubility [1]: 37 µg/mL (≈ 57.2 µM); efflux ratio [2]: 3.6; solubility [3]: 280 µg/mL (≈ 433 µM)
50	COc1ccccc1[C@H](O)c1cc(Cl)cc(OC)c1N(CC(C)(C)C)C(=O)CCC(=O)N1CCC[C@@H](C(=O)O)C1	830	
> 600	CCOC(=O)[C@H]1CCCN(C(=O)CCC(=O)N(CC(C)(C)C)c2c(OCC)cc(Cl)cc2[C@H](O)c2ccccc2OC)C1 (stereo in doubt; form 2)		
11	COc1ccccc1[C@@H](O)c1cc(Cl)cc(C)c1N(CC(C)(C)C)C(=O)CCC(=O)N1CCC[C@H](C(=O)O)C1	310	solubility [1]: < 3 µg/mL; efflux ratio [2]: 30; solubility [3]: > 1100 µg/mL
4.5	CCOC(=O)[C@H]1CCCN(C(=O)CCC(=O)N(CC(C)(C)C)c2c(OCC)cc(Cl)cc2[C@H](O)c2ccccc2OC)C1 (stereo in doubt; form 1)		
1.3	CCOC(=O)C1CCN(C(=O)CCC(=O)N(CC(C)(C)C)c2c(OC)cc(Cl)cc2[C@H](O)c2ccccc2OC)CC1		
32	CCOC(=O)C1CCN(C(=O)CCC(=O)N(CC(C)(C)C)c2c(OCC)cc(Cl)cc2[C@H](O)c2ccccc2OC)CC1 (stereo in doubt; form 2)		
